Test results reported in patent US7250304B2, “Functional assay of high-density lipoprotein” (The Regents of the University of California, priority 2000, dated 2007).

Key:
C57BL/6 mice = assay: Injection into mice, LDL isolated and tested on human artery wall cocultures
HAEC monolayers = assay: Monocyte adhesion assay; assay type: cell-based, human; details: LDL 1 mg/ml incubated with apo A-I 100 μg/ml 2 hrs, re-isolated
Protocol: In brief, HAEC monolayers, in 48-well tissue culture plates were incubated with the desired LDL or phospholipid for 4 hrs at 37° C. as described (Watson et al. (1995) J. Clin. Invest. 96: 2882-2891). After washing, a suspension of human peripheral blood monocytes was added and incubated for 10 min. The loosely adherent monocytes were then washed away, the monolayers were fixed and the number of adherent monocytes counted in 9 high power microscopic fields.
Freshly isolated LDL (250 μg) was incubated with pure 13(S)-HPODE (1.0 μg) in 10% LPDS in M 199 for 4 hrs at 37° C. with gentle mixing. LDL was re-isolated by centrifugation and was incubated with monolayers of human aortic endothelial cells. […] The endothelial monolayer was washed after each time point and a monocyte suspension was added, incubated, washed, and the number of adherent monocytes determined.
Freshly isolated LDL (250 μg) was incubated with 10 units of pure soybean lipoxygenase bound to sepharose beads for 4 hrs at 37° C. with gentle mixing. […] The endothelial monolayer was washed after each time point and monocyte adhesion determined.
Blood samples were collected from patients referred to the cardiac catheterization laboratory at The Center for Health Sciences at the University of California, Los Angeles. […] The HDL-Ox-PAPC mixture was then added to endothelial monolayers and monocyte binding was determined.

paraoxonase = details: mice, six hours after injection
[1] = system: human artery wall cell cocultures; assay: Monocyte chemotaxis assay on coculture conditioned medium; assay type: cell-based
Protocol: The wells of the microtiter plates were treated with 0.1% gelatin at 37° C. overnight. HASMC were added at a confluent density of 1×10^5 cells/cm^2. Cells were cultured for 2 d at which time they had covered the entire surface of the well and had produced a substantial amount of extracellular matrix. HAEC were subsequently added at 2×10^5 cells/cm^2 and were allowed to grow forming a complete monolayer of confluent HAEC in 2 d. In all experiments, HAEC and autologous HASMC (from the same donor) were used at passage levels of four to six.
Monocytes were isolated using a modification of the Recalde method as previously described (Fogelman et al. (1988) J. Lipid Res. 29: 1243-1247) from the blood of normal volunteers after obtaining written consent under a protocol approved by the human research subject protection committee of the University of California, Los Angeles.
In general, the cocultures were treated with native LDL (250 μg/ml) in the absence or presence of HDL for 8 h. The supernatants were collected and used for determination of lipid hydroperoxide levels. The cocultures were subsequently washed and fresh culture medium 199 (M199) without any additions was added and incubated for an additional 8 hrs. This allowed the collection of monocyte chemotactic activity released by the cells as a result of stimulation by the oxidized LDL. At the end of incubation, the supernatants were collected from cocultures, diluted 40-fold, and assayed for monocyte chemotactic activity. Briefly, the supernatant was added to a standard Neuroprobe chamber (NeuroProbe, Cabin John, Md.), with monocytes added to the top. The chamber was incubated for 60 min at 37° C. After the incubation, the chamber was disassembled and the nonmigrated monocytes were wiped off. The membrane was then air dried and fixed with 1% glutaraldehyde and stained with 0.1% Crystal Violet dye. The number of migrated monocytes was determined microscopically and expressed as the mean±SD of 12 standardized high power fields counted in quadruple wells.

Substance: apo A-I: Human apo A-I from Sigma, major apolipoprotein of HDL; infused into humans as apo A-I/phosphatidylcholine discs
- time after injection at which LDL was rendered resistant to oxidation (C57BL/6 mice): ≤ 3 h
- persistence of LDL resistance to oxidation (C57BL/6 mice; 100 μg injected): up to 24 hours
- monocyte adherence induced by LDL after A-I (HAEC monolayers): did not stimulate monocyte adherence
- PON activity in plasma and HDL, increase (paraoxonase): approximately 20%
- LDL-induced monocyte chemotaxis in pretreated cocultures ([1]; cocultures incubated 8 hrs with agent, agent removed before LDL): monocyte chemotaxis was prevented
- LDL-induced monocyte chemotactic activity of LDL pre-incubated with the agent ([1]; human LDL incubated with agent, re-isolated, then cocultures): prevented LDL-induced monocyte chemotaxis
